The record followed here is ChEMBL document CHEMBL1201862, “PubChem BioAssay data set” (2004).

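In this assay, cells in 96-well plates receive the compound at five concentrations for 48 hours. Endpoints are linearly interpolated between the surrounding concentrations. At the GI50, growth is halved.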 The source made the active and inactive calls. Cut-off read from the data, not from the text of the source: active = GI50 up to about 1.1 µM and inactive = higher. Bounds are passed on as bounds.

Some test systems named below: A498; ACHN; DU-145; EKVX; HCC 2998; HL-60; M14; NCI-H460; OVCAR-5; OVCAR-8; SF-539; SK-MEL-28; SK-MEL-2; SNB-19; SR; T47D; TK-10; UACC-62; OVCAR-3.
Holding throughout (test): NCI-60 cell line screen, 48 h

With `COc1ccc(C2SCC(=O)N2NC(=O)C(C)Oc2ccccc2Cl)cc1` (configuration not stated), the GI50 was 28.1 µM (inactive) in the assay with A498; 38.5 µM (inactive) with ACHN; 94.8 µM (inactive) with DU-145; 83.2 µM (inactive) in the assay on EKVX; > 100 µM (inactive) with HCC 2998; 17.1 µM (inactive) with HL-60. For the same compound, the GI50 was 41.9 µM (inactive) in the assay on M14; 70.1 µM (inactive) in the assay with NCI-H460; > 100 µM (inactive) with OVCAR-5; 61.1 µM (inactive) with OVCAR-8; > 100 µM (inactive) in the assay with SF-539; > 100 µM (inactive) with SK-MEL-28. In addition, the GI50 in the assay with SK-MEL-2 was 18.7 µM (inactive); in the assay with SNB-19, 69.2 µM (inactive); in the assay on SR it was 26.1 µM (inactive); in the assay on T47D, 27.2 µM (inactive); in the assay with TK-10, 63.2 µM (inactive); with UACC-62, 46 µM (inactive).
Take `CSc1nc(=S)[nH]c2[nH]nc(C)c12`: the GI50 in the assay on A498 is 73.3 µM (inactive); in the assay on DU-145, > 100 µM (inactive); in the assay on EKVX, > 100 µM (inactive); with HCC 2998 it was > 100 µM (inactive); with HL-60, > 100 µM (inactive); with M14, > 100 µM (inactive). The GI50 in the assay on NCI-H460, in the assay on OVCAR-3, in the assay on OVCAR-5, in the assay with OVCAR-8, with SF-539 and in the assay with SK-MEL-28 was > 100 µM (inactive) in each case. The GI50 was > 100 µM (inactive) in the assay on SK-MEL-2; > 100 µM (inactive) in the assay with SNB-19; 94.4 µM (inactive) in the assay on SR; > 100 µM (inactive) with T47D; > 100 µM (inactive) with TK-10; > 100 µM (inactive) in the assay with UACC-62.
For `CC(=N\N)/C(C)=N/N=C(C)/C(C)=N/N=C(C)/C(C)=N/N`, the GI50 is > 100 µM (inactive) in the assay on A498; > 100 µM (inactive) in the assay on ACHN; > 100 µM (inactive) in the assay with DU-145; > 100 µM (inactive) in the assay with EKVX; > 100 µM (inactive) in the assay on HCC 2998; 28.5 µM (inactive) in the assay with HL-60. Further, the GI50 in the assay with M14, with NCI-H460, in the assay with OVCAR-3, in the assay on OVCAR-5, with OVCAR-8 and with SF-539 was > 100 µM (inactive) each time. Also, the GI50 in the assay on SK-MEL-28, with SK-MEL-2, in the assay with SNB-19, in the assay on SR, in the assay on T47D and with TK-10 was > 100 µM (inactive) each time.
For `O=P1(Oc2ccc(Cl)cc2)OCCS1` (configuration not stated), the GI50 with A498 is > 100 µM (inactive); with ACHN it was > 100 µM (inactive); in the assay with DU-145, > 100 µM (inactive); in the assay on EKVX it was > 100 µM (inactive); in the assay on HCC 2998, > 100 µM (inactive); with HL-60, 80.7 µM (inactive). Also, the GI50 in the assay on M14, in the assay with NCI-H460, with OVCAR-5, in the assay on OVCAR-8, with SF-539 and with SK-MEL-28 was > 100 µM (inactive) each time. The GI50 in the assay with SK-MEL-2, in the assay on SNB-19, in the assay with SR, in the assay with T47D, with TK-10 and in the assay on UACC-62 was > 100 µM (inactive) each time.
In the case of `CC(C)CCNC(=O)c1ccc(CNC(=O)/C=C/c2ccc3ccccc3c2)cc1`, the GI50 in the assay on A498, with ACHN, in the assay with DU-145, in the assay with EKVX, in the assay with HCC 2998 and with HL-60 was > 100 µM (inactive) each time. The GI50 is 46.3 µM (inactive) in the assay with M14; > 100 µM (inactive) in the assay on NCI-H460; > 100 µM (inactive) in the assay with OVCAR-3; > 100 µM (inactive) in the assay on OVCAR-5; > 100 µM (inactive) with OVCAR-8; > 100 µM (inactive) in the assay with SK-MEL-28. Further, the GI50 with SK-MEL-2, in the assay on SNB-19, with SR, in the assay on T47D and with UACC-62 was > 100 µM (inactive) in each case.
As for `Nc1c(Cl)cc(-c2nc3ccccc3s2)cc1Cl`, the GI50 with A498 is 0.288 µM (active); with ACHN, > 100 µM (inactive); in the assay with DU-145 it was > 100 µM (inactive); in the assay on EKVX, > 100 µM (inactive); in the assay with HCC 2998, > 100 µM (inactive); in the assay with HL-60, > 100 µM (inactive). Also, the GI50 in the assay with M14 was > 100 µM (inactive); in the assay on NCI-H460 it was 0.556 µM (active); in the assay with OVCAR-3, > 100 µM (inactive); in the assay with OVCAR-8 it was > 100 µM (inactive); in the assay with SF-539 it was > 100 µM (inactive); in the assay on SK-MEL-28 it was > 100 µM (inactive). Besides, the GI50 was > 100 µM (inactive) in the assay with SK-MEL-2; > 100 µM (inactive) with SNB-19; > 100 µM (inactive) in the assay on SR; 4.16 µM (inactive) with T47D; 0.501 µM (active) in the assay with TK-10; > 100 µM (inactive) in the assay on UACC-62.
For the compound `O=C(/N=N/c1ccc(Cl)cc1Cl)NNc1ccc(Cl)cc1Cl`, the GI50 is 15.7 µM (inactive) with A498; 16.6 µM (inactive) in the assay on ACHN; 14.7 µM (inactive) in the assay with DU-145; 11.4 µM (inactive) in the assay with HCC 2998; 20.7 µM (inactive) in the assay on HL-60; > 10 µM (inactive) in the assay on M14. Further, the GI50 with NCI-H460 is 16.4 µM (inactive); with OVCAR-3, 15.9 µM (inactive); with OVCAR-5, 19.3 µM (inactive); with OVCAR-8 it was 17.7 µM (inactive); with SK-MEL-28, 20.7 µM (inactive); in the assay on SK-MEL-2, 12.9 µM (inactive). Besides, the GI50 in the assay with SNB-19 was 28.6 µM (inactive); in the assay on SR, 23.2 µM (inactive); with T47D it was 21.7 µM (inactive); with TK-10 it was 24.3 µM (inactive); in the assay with UACC-62 it was 13.9 µM (inactive).
For `CC1=NN(c2cc(Cl)c(S(=O)(=O)O)cc2Cl)C2(C1)C(Cl)C(=O)N2c1nc2ccccc2s1` (configuration not stated), the GI50 is 80 µM (inactive) in the assay with A498; > 100 µM (inactive) with ACHN; 29.3 µM (inactive) with DU-145; 44.9 µM (inactive) in the assay on EKVX; > 100 µM (inactive) in the assay with HCC 2998; > 100 µM (inactive) with HL-60. In addition, the GI50 in the assay with M14 is > 100 µM (inactive); in the assay on NCI-H460 it was > 100 µM (inactive); in the assay on OVCAR-5 it was > 100 µM (inactive); in the assay with OVCAR-8, 86.9 µM (inactive); in the assay with SF-539 it was > 100 µM (inactive); in the assay on SK-MEL-28, > 100 µM (inactive). Also, the GI50 in the assay with SK-MEL-2 was > 100 µM (inactive); in the assay with SNB-19, > 100 µM (inactive); in the assay with SR, 89.9 µM (inactive); in the assay on T47D it was 66.1 µM (inactive); in the assay on TK-10, 68.5 µM (inactive); with UACC-62, 71 µM (inactive).
